The record followed here is US12551438B2, “Nanobowl-supported drug-loaded liposome, preparation method therefor and application thereof” (priority 2020, dated 2026).

Where a name gives a salt, the structure may show the parent alone.

The subject of one data set is 4T1 breast cancer. The protocol: • 1) 4T1 cell culture solution: DMEM basal medium, 1 penicillin streptomycin double antibody, 10% fetal bovine serum; • 2) 4% paraformaldehyde solution: with PBS (0.01 M) of pH 7.4 as the solvent, weighing 40 g of paraformaldehyde and placing into 800 mL of PBS solution, shaking and dissolving in a constant temperature shaker at 60° C. overnight; after the solid of paraformaldehyde is completely dissolved, stopping heating, balancing to room temperature, and adding PBS again to dilute the volume to 1 L; • 3) 1% sodium pentobarbital anesthetic: weighing 100 mg pentobarbital sodium, adding into 10 mL ultrapure water, and vortexing until it is fully dissolved. II. Experimental Method 1. Establishment of Orthotopic Inoculation Model for 4T1 Breast Cancer 1.1 Preparation of 4T1 Cell Suspension • 1) Taking a T-75 culture flask containing 4T1 cells, using a pipette to suck out the cell culture solution in the culture flask, and adding 5 mL of DPBS to rinse for 1-2 times to remove the residual culture solution; • 2) adding 2 mL of 0.25% trypsin, shaking the culture flask back and forth, so that the trypsin uniformly covers the bottom surface of the culture flask, and incubating in a constant temperature incubator containing 5% CO2 at 37° C. for 3 min; • 3) adding 10 mL serum-free cell culture medium, diluting trypsin and stop digestion; • 4) using a pipette to blow and beat the cell suspension to evenly disperse it to obtain a single cell suspension, taking 5 μL of cell suspension and adding placental blue dye solution with the same volume, and using an Invitrogen life countess cell counter to count the cells of cell suspension; • 5) centrifuging at 4° C. and 800 g for 5 min, discarding the supernatant, adding an appropriate amount of serum-free cell culture medium according to the intracellular concentration calculated previously, gently blowing and beating the cell block with a pipette to fully disperse it to prepare a single cell suspension, and the final concentration of cell suspension is: 1.6×10^7/mL; • 6) dispensing the 4T1 cell suspension into sterile 2 mL centrifuge tubes and storing at 4° C. until use. 1.2 BALB/c Female Mice Inoculated Orthotopically with 4T1 Cells • 1) On the day before inoculation, removing the hair on the right side of the abdomen of the mice to prepare the skin for the next day surgery; • 2) the next day, injecting the skin-prepared mice intraperitoneally with 1% pentobarbital anesthetic 100 μL; • 3)after complete anesthesia, fixing the limbs, wetting the right side of the abdomen with normal saline, and then using a scalpel to make a light incision on the abdomen; • 4) using tweezers to clamp out the 4th mammary fat pad located at the root of right thigh, and injecting 50 μL of 4T1 single cell suspension prepared above; • 5) loosening the tweezers, positioning the fat pad, and then suturing the abdominal wound; • 6) at the end of inoculation, returning the mice to their cages and the front leg of each mouse was taped with a label tape. 2. Animal Grouping and Dosing Regimen • 1) four days after inoculation, tumor volume was determined using vernier calipers: the longest and shortest diameters (L, W) of the tumor were measured every other day, and the tumor volume was calculated according to the following formula:
[formula] • 2) after the tumor volume grew to 80 mm^3, it was evenly divided into the following 5 experimental groups according to the size of tumor volume: • (1) Saline group (Saline) • (2) Blank nanobowls@liposomes group (NB@LP) • (3) Doxorubicin hydrochloride group (Dox) • (4) Common Dox-liposome group (DLP) • (5) Nanobowls@Dox-liposome group (NB@DLP) • 3) On the 8th, 11th and 14th day after inoculation, the corresponding drugs were intravenously injected into the tail vein of each experimental group, and the corresponding drugs were administered to each group at a dose of 4 mg/kg of doxorubicin. 3.

The subject of another data set is 4T1 breast cancer cells. Description: Cell viability by CCK-8 method. The data set is classed as cell-based, mouse. Particulars: 4T1 cells, doxorubicin 0.01-10.00 μg/mL, 48 h. The protocol: [formula] • 5) collecting the nanobowls@Dox-liposomes at each time point by centrifugation (24000 g, 15 min) and determining the particle size and potential by DLS after redispersion. 1.2. […] Incubating the culture plate in a 37° C., 5% CO2 constant temperature cell incubator for 12 h; 2) preparing different nanoparticle structures in a serum-free culture medium with a drug concentration gradient to prepare a culture medium containing different concentrations of liquid medicine, sucking out the old culture medium in the culture plate, and then adding 200 μL of a new culture medium containing the liquid medicine to each well; • 3) placing the 96-well plate containing cells in a 37° C., 5% CO2 constant temperature cell incubator for culture for appropriate time; • 4) diluting CCK-8 liquid with serum-free culture medium by a factor of 10 according to 1:10, sucking out the old culture medium in the culture plate, and adding 100 μL culture medium containing CCK-8 into each well; • 5) incubating the culture plate in a 37° C., 5% CO2 constant temperature cell incubator for 0.5-1 h; • 6) determining the absorbance of each well with a microplate reader at a wavelength of 450 nm. […]

Data set [1] concerns important organs of tumor-bearing mice. To be noted: mouse, in vivo. From the text: (§1) [formula] • 2) after the tumor volume grew to 80 mm^3, it was evenly divided into the following 5 experimental groups according to the size of tumor volume: • (1) Saline group (Saline) • (2) Blank nanobowls@liposomes group (NB@LP) • (3) Doxorubicin hydrochloride group (Dox) • (4) Common Dox-liposome group (DLP) • (5) Nanobowls@Dox-liposome group (NB@DLP) • 3) On the 8th, 11th and 14th day after inoculation, the corresponding drugs were intravenously injected into the tail vein of each experimental group, and the corresponding drugs were administered to each group at a dose of 4 mg/kg of doxorubicin. 3. Monitoring of Mouse Body Weight and Tumor Volume • 1) determining body weight and tumor length and diameter every 2 days after the first dose of group, calculating tumor volume, and recording and summarizing all results; • 2) using GraphPad Prism 7.0 medical mapping software for data induction, statistical analysis, and making charts. 4. Immunohistochemical Staining of Tissue Sections • 1) after the last intravenous administration, selecting several mice in each experimental group, after sacrifice, dissecting and removing tumor tissues and important organs of mice, and fully immersing in 4% paraformaldehyde solution for fixation; • 2) during fixation, replacing fresh 4% paraformaldehyde solution several times to wash out residual blood. […]

The subject of another data set is 4T1 tumor tissue. Description: TUNEL and PCNA immunohistochemical staining of tumor tissue of 4T1 tumor-bearing mice. The data set is classed as in vivo, mouse. Particulars: tumor tissue after treatment.
Description: as §1

On to `COc1cccc2c1C(=O)c1c(O)c3c(c(O)c1C2=O)C[C@@](O)(C(=O)CO)C[C@@H]3O[C@H]1C[C@H](N)[C@H](O)[C@H](C)O1` [Dox, doxorubicin hydrochloride], for which, in the data set on 4T1 breast cancer (4 mg/kg doxorubicin i.v. tail vein, days 0, 3 and 6), the tumor volume growth entry is given as “could not achieve the expected treatment of tumor”. The median survival time in the data set on 4T1 breast cancer (4T1 breast cancer mice) is 27 days. Further, the “Median survival” value with 4T1 breast cancer (4T1 breast cancer mice, 4 mg/kg doxorubicin i.v. x3) is 27 days. Further, the “Prolong duration” value in the data set with 4T1 breast cancer (median survival versus saline) amounted to 3 days. In addition, the “Prolonged rate (%)” value in the data set on 4T1 breast cancer (median survival versus saline control) came out at 12.50%. For the same molecule, the “body weight of mice during administration” value with 4T1 breast cancer (mouse, in vivo) was “significant decrease”. For the same molecule, the “prolongation of median survival time compared with the control group” value in the data set with 4T1 breast cancer (versus saline control) came to 3 days. Moreover, the “effect on cell viability” value in the data set on 4T1 breast cancer cells was “significantly stronger than that of common Dox-liposomes and nanobowls@Dox-liposomes”. Also, the “toxicity to the heart (pathological sections)” value in data set [1] is “more toxic to the heart, leading to the lysis and rupture of cardiomyocytes”. Further, the “effect of promoting tumor cell apoptosis (TUNEL) and inhibiting proliferation (PCNA)” value with 4T1 tumor tissue was “worst effect”.
